# Results: patent publication US8546079B2, “Reporter gene construct, assay kit and detection method” (Kabushiki Kaisha Toshiba, priority 2010, dated 2013)
# Test system: enhancer region of cytochrome 1A1 gene
# Test: Detection of nitrogen monoxide (NO.) having responded to carcinogenicity by iNOS vector pXRE-SV40-NOS2 (DAF2-DA fluorescence)
# Format: cell-based, mouse
# Conditions: Neuro2a transfected with pXRE-SV40-NOS2; 1.0 μM, 24 hours; compared with DMSO; inverted fluorescence microscope (FIG. 3A, 3B)
# Excerpt: An enhancer region responsive to a carcinogenic substance was incorporated in the iNOS vector: pSV40-NOS2. The enhancer region of cytochrome 1A1 gene responsive to a carcinogenic substance (benzopyrene) (SEQ ID NO: 4) was amplified by PCR from a mouse genome. The 5′ terminal of the amplified enhancer region was phosphorylated with T4 polynucleotide kinase, and ligated using T4 ligase to pSV40-NOS2 having been digested with restriction enzyme Sma I and having its 5′ terminal dephosphorylated with alkali phosphatase, thereby obtaining pXRE-SV40-NOS2 (FIG. 2). Using this vector, the correlation of the activation of the enhancer region by a carcinogenic substance with the amount of nitrogen monoxide (NO.) synthesized by iNOS was studied.
# Mouse neuroblastoma Neuro2a (American Type Cell Culture) was seeded on a 24-well plate at a density of 8.0×10^4 cells/well, and using DMEM/F12 medium (DF1:1 medium) supplemented with 10% fetal calf serum (FCS), cultured overnight in a 5% CO2 atmosphere at 37° C. […] Two hours later, the cells were washed with phosphate buffer (PBS) twice, and the fluorescence by the reaction product of DAF-2DA and nitrogen monoxide (NO.) (DAF-2T, excitation wavelength: 495 nm, fluorescence wavelength: 515 nm) was observed by means of an inverted fluorescence microscope.
structure (smiles),measurement,value
c1ccc2c(c1)c1cccc3ccc4cccc2c4c31 [benzopyrene],fluorescence by the reaction product of DAF-2DA and nitrogen monoxide (NO.),induction of fluorescence
